The data set in a line: gradient 5% acetonitrile 3 min, to 50% in 2 min, to 85% in 15 min, held 3 min, 100 µL/min. Conditions: column: Zorbax Extend-C18 2.1 x 50 mm; eluents: water / acetonitrile, 0.1% formic acid. A digest of the protocol:
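Standards, all pure, were combined into mixtures of ~100 molecules and run at 100 μL/min on a Zorbax Extend-C18 column (2.1 × 50 mm, 1.8 μm) with water and acetonitrile, each containing 0.1% formic acid. A coupled quadrupole time-of-flight mass spectrometer operated in positive and negative ionization mode. Retention time values come from computationally picked adduct peaks, each inspected manually.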
The compound `COc1ccc(-c2nc3cnccn3c2Nc2cc(OC)ccc2OC)cc1` came in with an RP-LC retention time of 831 s.

Compound `Cc1ccc(Oc2nccn3c(=O)n(CC(=O)NC(C)CCc4ccccc4)nc23)cc1` (centres undefined) had an RP-LC retention time of 1080 s.

For `CCC(CC)C(=O)N1CCN(Cc2nc3cc(C(=O)N4CCCC4)ccc3n2C)CC1`, the RP-LC retention time came out at 598 s.

In turn, `CC(C)CN1CCN(Cc2nc(-c3ccc(N4CCCCC4)nc3)no2)CC1` registered an RP-LC retention time of 596 s.

Compound `CCCN1C(=O)COc2ccc(-c3csc(NC(=O)/C=C/c4ccc(OCC)c(OC)c4)n3)cc21` yielded an RP-LC retention time of 1090 s.

`COc1ccccc1NC(=O)Cn1ncc2c(c1=O)N(CC1CC1)C(=O)CS2` displayed an RP-LC retention time of 794 s.

In turn, `CCC1Oc2ccc(S(=O)(=O)N3CCC(C(=O)Nc4cc(Cl)ccc4C)CC3)cc2NC1=O` (centres undefined) had an RP-LC retention time of 948 s.

`Cn1cc(-c2ccc(F)cc2)cc1C(=O)N1CCCC1` came in with an RP-LC retention time of 906 s.

In turn, `CCc1sc(NC(=O)c2cc(OC)cc(OC)c2)nc1-c1ccccc1` had an RP-LC retention time of 1200 s.

Consider `COCCNCc1ccc(-c2ccc(Br)cc2)o1`, for which the RP-LC retention time was found to be 674 s.

`COc1cccc(CNC(=O)c2nc(N3CCOCC3)c3c(C)cc(C)nc3n2)c1` registered an RP-LC retention time of 625 s.

The compound `Cn1ncc2c(N3CCCCC3)nc(C(=O)N3CCN(c4ccccc4Cl)CC3)nc21` returned an RP-LC retention time of 1030 s.

For the compound `Cc1oc(C(C)C)nc1C(=O)NC(C)c1ccccn1` (centres undefined), the RP-LC retention time is 610 s.

As to `COc1ccc(-n2ccc(=O)c(-c3nc(-c4ccccc4F)no3)n2)cc1OC`, the RP-LC retention time was determined as 770 s.

In turn, `CCc1c(C(=O)O)nnn1-c1ccc(C)cc1F` returned an RP-LC retention time of 737 s.

Compound `COc1cc(NC(=O)COc2ccc(-c3nnc4n3CCCC4)cc2)cc(OC)c1OC` showed an RP-LC retention time of 646 s.

Consider `CCS(=O)(=O)N1CC(=O)N(c2ccc(C)c(F)c2)C(C)(C(=O)NC2CCCCCC2)C1` (centres undefined), for which the RP-LC retention time was determined as 968 s.

`Cc1cc2nn(CC(=O)NCc3ccccc3)c(=O)n2c(Nc2ccc(C)c(C)c2)n1` showed an RP-LC retention time of 1060 s.

For the compound `Oc1ccc2c(ccc3[nH]cnc32)c1`, the RP-LC retention time came out at 622 s.

In turn, `COC(=O)c1cnc2nc(C)ccc2c1Nc1ccc(Cl)cc1` registered an RP-LC retention time of 705 s.

Compound `COCCCNC(=O)CCC(=O)N1CCCn2nc(-c3cn(C)c4ccccc34)cc21` showed an RP-LC retention time of 670 s.

Regarding `COc1ccc(NC(=O)Cn2nc3n(c2=O)CCCC3)cc1`, the RP-LC retention time was 634 s.

With `NC(=O)[C@H]1CCCCc2c1[nH]c1ccc(Cl)cc21`, the RP-LC retention time came out at 819 s.

Turning to `O=C(Nc1cn(-c2ccc(C(=O)N3CCN(c4cccc(Cl)c4)CC3)cc2)cn1)C1CC1`, the RP-LC retention time was 810 s.

On to `Cc1nnc(N2CCCC(C(=O)NCCC3=CCCCC3)C2)c2nn(-c3ccccc3)c(C)c12` (centres undefined), for which the RP-LC retention time stood at 803 s.

Compound `CC(C)(C)c1noc(-c2ccc(-n3cnc(C(=O)N4CCSCC4)c3)nc2)n1` displayed an RP-LC retention time of 963 s.

For the compound `CCOc1ccc(C(=O)N2CCCN(c3cc(-c4ccc(Br)cc4)[nH]n3)CC2)cc1OCC`, the RP-LC retention time was 853 s.

As for `COCCCNC(=O)C1CCN(S(C)(=O)=O)c2cc(Cl)ccc2O1` (centres undefined), the RP-LC retention time is 730 s.

`Cc1cc(=O)n(CC(=O)N2CCCc3ccccc32)c(N2CCCC2)n1` registered an RP-LC retention time of 665 s.

The compound `Cn1c(C2CCN(C(=O)c3ccc(Br)cc3)CC2)cc(=O)n2nccc12` registered an RP-LC retention time of 679 s.

As to `O=c1c2cnn(-c3ccc(Br)cc3)c2ncn1Cc1nc(-c2ccc(F)cc2)no1`, the RP-LC retention time was found to be 1150 s.

`O=C(CSc1ccc(S(=O)(=O)c2ccccc2)nn1)Nc1ccc2c(c1)OCO2` returned an RP-LC retention time of 822 s.

With `Cc1ccc(Oc2nccnc2N2CCCC(C(=O)Nc3ccc(Br)c(C)c3)C2)cc1` (centres undefined), the RP-LC retention time came out at 1290 s.

As for `CCCn1c(-c2cccc(C(=O)NC3CCCC3)c2)nc2cccnc21`, the RP-LC retention time was found to be 772 s.

With `Cc1nc(-c2ccncc2)nc2c1CC(=O)N2C1CCCC1`, the RP-LC retention time was determined as 703 s.

In turn, `CCCC(=O)N1CCCn2nc(-c3ccncc3)cc2C1` yielded an RP-LC retention time of 577 s.

Compound `COC1C(=O)N(c2cccc(F)c2)C12CCN(C(=O)C1(c3ccccc3)CC1)CC2` (centres undefined) had an RP-LC retention time of 994 s.

`Cc1ccccc1NC(=O)Nc1ccc2nncn2c1` returned an RP-LC retention time of 668 s.

In turn, `CC(=O)c1cccc(C(=O)N2CCC3(CC2)N=C(c2ccc(C)cc2)NO3)c1` returned an RP-LC retention time of 772 s.

With `Cc1ccccc1CC(=O)N1CCN(c2cc(C)n3cnnc3n2)CC1`, the RP-LC retention time was determined as 608 s.

Take `Cc1ccc(-c2cc3c(=O)n(Cc4noc(CN5CCCCC5C)n4)ccn3n2)cc1C` (centres undefined): the RP-LC retention time was determined as 730 s.

`COc1ccc(-c2ccc(N3CCN(c4ccccn4)CC3)nn2)cc1S(=O)(=O)N1CCOCC1` displayed an RP-LC retention time of 572 s.

In turn, `Cc1cc(C)n(-c2ccc(C(=O)NCCCN3CCCC3=O)nn2)n1` showed an RP-LC retention time of 637 s.

In the case of `CSc1ccc(CNC(=O)c2ccc3nc(CCc4ccc(NC(C)=O)cc4)[nH]c3c2)cc1`, the RP-LC retention time turned out to be 663 s.

`CN(C)C[C@@H]1CN(C)C[C@H]1NC(=O)c1ccc(Br)cc1` registered an RP-LC retention time of 553 s.

With `CCOc1ccc(NC(=O)C(C)C2CCN(C(=O)Nc3ccc(Cl)cc3)CC2)cc1` (centres undefined), the RP-LC retention time stood at 942 s.

For `Cc1cc(C(=O)NC2CCc3nnc(C)n3CC2)c(C)n1Cc1ccco1` (centres undefined), the RP-LC retention time was found to be 643 s.

Compound `C=CCn1nc2ccc(S(=O)(=O)N3CCSCC3)cn2c1=O` showed an RP-LC retention time of 744 s.

Compound `CCC(C)c1ccc(NC(=O)c2nn(C)cc2Cl)cc1` (centres undefined) returned an RP-LC retention time of 1100 s.

`CN(C)S(=O)(=O)c1ccc2c(c1)N(CC(=O)Nc1ccc3c(c1)OCO3)C(=O)C1CCCCN21` (centres undefined) had an RP-LC retention time of 877 s.

`COc1cccc(CN2CCC(N3C(=O)C4(CCCCC4)C3c3ccncc3)CC2)c1OC` (centres undefined) had an RP-LC retention time of 601 s.

Turning to `CC(C)c1nn2c(S(=O)(=O)NC3CCCC3)c(C(C)C)nc2s1`, the RP-LC retention time worked out at 1050 s.

Turning to `Cc1ccc(Cl)cc1NC(=O)N1CCC(n2c(-c3ccco3)nc3cccnc32)C1` (centres undefined), the RP-LC retention time was determined as 835 s.

On to `CN1C(=O)C2(CCN(C(=O)NC3CCCCC3)CC2)c2ccccc21`, for which the RP-LC retention time was 807 s.

For `O=C(NCC1CCCCC1)c1sc2ncccc2c1-n1cccc1`, the RP-LC retention time was found to be 1190 s.

`O=C(NCc1cccc2ccccc12)C(=O)c1c[nH]c2ccccc12` registered an RP-LC retention time of 1010 s.

`COc1ccc(-c2nnc(-c3ccc(C)c(S(=O)(=O)N4CCSCC4)c3)o2)cc1OC`: the RP-LC retention time stood at 970 s.

`CCCCCCCNC(=O)C1CCCN(c2ncc(-c3ccccc3)cn2)C1` (centres undefined) showed an RP-LC retention time of 1260 s.

`CN(CC1CCCO1)S(=O)(=O)c1ccc(C(=O)Nc2sc3c(c2C#N)CCC3)cc1` (centres undefined) showed an RP-LC retention time of 957 s.

`O=C(c1cccc(Nc2nc3ccccc3n3nnnc23)c1)N1CCN(c2ccccn2)CC1`: the RP-LC retention time was 655 s.

Regarding `COc1ccc(NC(=O)C2CCN(c3nccnc3Sc3ccccc3)CC2)cc1Cl`, the RP-LC retention time is 1100 s.

As to `CC(=O)Oc1ccccc1C1=NN(C(C)=O)C(c2ccc(Cl)cc2)O1` (centres undefined), the RP-LC retention time worked out at 1020 s.

The compound `COc1ccc(OC)c(NC(=O)N2CCC(n3c(C)nc4cccnc43)CC2)c1` had an RP-LC retention time of 631 s.

As to `CC(NC(=O)c1c(O)c2cccnc2n(-c2cccc(F)c2)c1=O)c1ccccc1` (centres undefined), the RP-LC retention time was 1230 s.

`COc1ccc(NC(=O)Nc2c(-c3ccc(C)cc3)nc3ccccn23)cc1OC` yielded an RP-LC retention time of 927 s.

In turn, `Cc1cc(N2CCCC2)nc(N2CCN(C(=O)c3ccc(Br)cc3)CC2)n1` returned an RP-LC retention time of 713 s.

Consider `NC(=O)Cc1csc(NC(=O)COc2ccc3c(c2)C(=O)CC3)n1`, for which the RP-LC retention time stood at 600 s.

As to `Cc1csc(-c2cc(S(=O)(=O)Nc3ccc(Cl)cc3)c(C)s2)n1`, the RP-LC retention time was 1060 s.

In turn, `CCn1c(=O)c(C)nc2cc(-c3noc(C4CC(=O)N(c5cccc(Cl)c5)C4)n3)ccc21` (centres undefined) registered an RP-LC retention time of 966 s.

`CCOC(=O)c1oc2ccc(S(=O)(=O)N3CCCC(CN4CCCC4)CC3)cc2c1C` (centres undefined): the RP-LC retention time was determined as 733 s.

Turning to `O=C(Nc1ccc2nc3n(c(=O)c2c1)CCCCC3)C(=O)N1CCc2ccccc21`, the RP-LC retention time was 889 s.

On to `Cc1cc(C)c(S(=O)(=O)N2CCC(c3noc(-c4ccccc4C)n3)CC2)c(C)c1`, for which the RP-LC retention time was found to be 1430 s.

Take `CCOc1ccc(-c2[nH]ncc2CNS(=O)(=O)c2cccc(C(F)(F)F)c2)cc1`: the RP-LC retention time stood at 902 s.

`CCOC(=O)c1ccccc1NC(=O)NCCn1c(C(F)(F)F)nc2cccnc21` displayed an RP-LC retention time of 917 s.

`CCN(Cc1ccccc1)C(=O)c1ncn2c1C(=O)N(CC)C(C)(C(=O)NCc1ccc(F)cc1)C2` (centres undefined) had an RP-LC retention time of 762 s.

As for `CCOC(=O)c1cccc(Nc2c(-c3ccc(C(=O)O)cc3)nc3cnccn23)c1`, the RP-LC retention time was found to be 726 s.

Compound `O=C(Cn1ncccc1=O)Nc1cccc(-c2cn3c(n2)SCC3)c1` displayed an RP-LC retention time of 530 s.

Take `Cc1sc(-c2noc(C3CC3)n2)cc1S(=O)(=O)N1CCC(C(=O)N2CCOCC2)CC1`: the RP-LC retention time was determined as 853 s.

`CCNC(=O)C1CCCN(c2nc3ncn(CC(=O)Nc4c(C)cccc4CC)c(=O)c3s2)C1` (centres undefined) had an RP-LC retention time of 703 s.

The values are drawn from the METLIN SMRT retention time set (Domingo-Almenara et al. 2019).
